Measured values published in patent publication US5081119A, “Use of 5-alkylpyridazine derivatives as drugs active on the cholinergic system” (priority 1989, dated 1992).

Legend:
[1] = French patents 2 141 697, 2 510 997, 2 510 998; cited from earlier work
cholinergic receptors = assay: Ligand properties for the cholinergic receptors (subsequent studies); assay type: binding
[2] = test system: rotational behavior induced by intrastriatal pirenzepine (M1 central muscarinic cholinergic receptors); assay: Antagonism of rotational behavior induced by intrastriatal injection of pirenzepine in mice; assay type: in vivo, mice (female, Swiss, CD 1 printed as DC 1, Charles River); settings: 3 mg/kg p.o., 4 hours before pirenzepine 1 μg into right striatum; 10 animals per dose; Student t test, *p < 0.05, **p < 0.01
Experimental: The compounds of formula (II) were also subjected to an in vivo study. Pirenzepine (PZ) is a specific antagonist of ligands for the M1 central muscarinic cholinergic receptors. The intrastriatal injection of PZ into mice induces rotational behavior. The antagonism of this behavior by the test products was studied. The products according to the invention are administered orally after solubilization in distilled water or suspension in a 5% solution of gum arabic. The control animals receive an injection of the pure solvent under the same conditions. The animals used are female mice (Swiss, DC 1, Charles River, France) with a body weight of between 25 and 30 grams. Pirenzepine is dissolved in a phosphate buffer; the pH of the solution is 6. The test products or their solvents are administered orally in a volume of 0.4 ml per 20 g of body weight, 4 hours before a direct injection of pirenzepine at a dose of 1 μg of product in 1 μl of solvent into the right striatum of the mouse, according to the method described by P. Worms et al. in Psychopharmacology 1987, 93, 489-493. The number of contralateral rotations (rotations in the opposite direction to the side injected) was counted for three 2-minute periods after the injection of pirenzepine: minutes 2 to 4, 8 to 10 and 13 to 15. Each treatment involves 10 animals per dose. For each treatment, the total number of rotations and the percentage antagonism compared with the control group are calculated. The results obtained with the products of formula (II) administered orally at a dose of 3 mg/kg of body weight are collated in Table 4.

[3] = biological target: T1, M2-type muscarinic cholinergic receptor (Cavia porcellus, UniProt H0VRN8); assay: Affinity for M2-type muscarinic cholinergic receptor: displacement of [3H]-N-methylscopolamine on guinea-pig ileum smooth muscle homogenate; assay type: binding; settings: displacement of [3H]-NMS (0.3 nM), 20 min at 30° C., pH 7.5
T1 construct: on a homogenate of smooth muscle of guinea-pig ileum; from tissue; host or cells: guinea-pig ileum smooth muscle homogenate
T1 sequence (H0VRN8 1-466): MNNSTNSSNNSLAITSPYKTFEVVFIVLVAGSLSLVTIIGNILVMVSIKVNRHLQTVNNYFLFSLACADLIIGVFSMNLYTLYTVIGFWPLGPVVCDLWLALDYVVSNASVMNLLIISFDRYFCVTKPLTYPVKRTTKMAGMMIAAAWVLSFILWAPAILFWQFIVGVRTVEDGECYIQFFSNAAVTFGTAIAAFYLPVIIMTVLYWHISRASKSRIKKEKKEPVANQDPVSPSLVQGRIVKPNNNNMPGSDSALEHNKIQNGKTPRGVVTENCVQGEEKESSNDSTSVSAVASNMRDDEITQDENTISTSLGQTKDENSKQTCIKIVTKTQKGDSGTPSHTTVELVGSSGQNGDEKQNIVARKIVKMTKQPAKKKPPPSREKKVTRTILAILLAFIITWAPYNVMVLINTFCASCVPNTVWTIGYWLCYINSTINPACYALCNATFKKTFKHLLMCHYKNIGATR
From the text: (§1) In vitro, we studied the interaction of the products (II) with tritiated pirenzepine and tritiated N-methylscopolamine bound with a high affinity to membranes of rat hippocampus and membranes of smooth muscle of guinea-pig ileum, respectively.
B) Test for affinity for the M2 -type muscarinic cholinergic receptor.
The interaction with the M2 -type muscarinic receptors was studied by in vitro measurement, on a homogenate of smooth muscle of guinea-pig ileum, of the displacement of tritiated N-methylscopolamine ([^3 H]-NMS) from its specific binding sites. Aliquots (50 μl) of a 0.625% (w/v) homogenate of smooth guinea-pig muscle in HEPES buffer (20 mM) containing NaCl (100 mM) and MgCl2 (10 mM) (final pH: 7.5) are incubated for 20 min at 30° C. in the presence of [^3 H]-NMS (85 Ci/mmol; final concentration: 0.3 nM) and increasing concentrations of test products. The final volume is 1 ml. The reaction is stopped by centrifugation for 5 min at 15,000×g. The non-specific binding is determined in the presence of 10 μmol-l of atropine sulfate (Ref.: Hammer R., Berrie C. P., Birdsall N. I. M., Burgen A. S. V. and Hulme E. C., Nature, 283, 90-92, 1980; Hulme E. C., Birdsall N. I. M., Burgen A. S. V. and Mettha P., Mol. Pharmacol., 14, 737-750, 1978).
(§2) Table 3 indicates the affinities of the products of the invention for the M1 and M2 receptors. The results are expressed as 50 percent inhibitory concentrations (IC50), i.e. the concentration (in μM) which causes a 50% inhibition of the binding of the tritiated ligand to the membrane receptors. The IC50 for displacement of ^3 H-pirenzepine represents the affinity for the M1 receptor; the IC50 for displacement of ^3 H-NMS represents the affinity for the M2 receptor.
(§3) The Table also indicates, in the 3rd column, the ratio r of the M2 and M1 IC50 values, which expresses the selectivity of the products towards the M1 receptor.

[4] = biological target: T2, M1-type muscarinic cholinergic receptor (Rattus norvegicus, UniProt P08482); assay: Affinity for M1-type muscarinic cholinergic receptor: displacement of [3H]-pirenzepine on rat hippocampus homogenate; assay type: binding; settings: for IC50: displacement of [3H]-PZ (1 nM), rat hippocampus homogenate, 2 h at 4° C., pH 7.40; for r = M2/M1 (ratio of the M2 and M1 IC50 values, selectivity towards the M1 receptor): ratio of IC50 3H-NMS (guinea-pig ileum) to IC50 3H-PZ (rat hippocampus)
T2 construct: on a homogenate of rat hippocampus; from tissue; host or cells: rat hippocampus homogenate
T2 sequence (P08482 1-460): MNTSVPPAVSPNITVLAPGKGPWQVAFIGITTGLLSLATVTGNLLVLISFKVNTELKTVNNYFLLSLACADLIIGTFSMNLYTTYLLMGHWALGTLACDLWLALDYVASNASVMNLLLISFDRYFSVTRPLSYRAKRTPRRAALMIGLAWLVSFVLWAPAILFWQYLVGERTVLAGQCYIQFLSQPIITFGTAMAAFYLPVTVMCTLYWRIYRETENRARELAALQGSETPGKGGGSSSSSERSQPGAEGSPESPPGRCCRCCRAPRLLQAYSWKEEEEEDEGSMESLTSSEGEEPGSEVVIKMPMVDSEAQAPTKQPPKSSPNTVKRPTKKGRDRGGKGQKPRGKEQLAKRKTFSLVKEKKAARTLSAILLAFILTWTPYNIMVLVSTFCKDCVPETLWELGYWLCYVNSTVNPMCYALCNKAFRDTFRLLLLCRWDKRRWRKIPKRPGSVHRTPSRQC
From the text: as §1
A) Test for affinity for the M1 -type muscarinic cholinergic receptor
The interaction of molecules with the M1 -type muscarinic receptors was studied by in vitro measurement, on a homogenate of rat hippocampus, of the displacement of tritiated pirenzepine ([^3 H]-PZ) from its specific binding sites. Aliquots (100 μl) of a 5% (w/v) homogenate of rat hippocampus in an Na2 HPO4 buffer (50 mM, pH 7.40) are incubated for 2 h at 4° C. in the presence of [^3 H]-PZ (76 Ci/mmol; final concentration: 1 nM) and increasing concentrations of test products. The final volume is 2 ml. The reaction is stopped by centrifugation for 10 min at 50,000×g. After decantation and washing of the residues, the bound radioactivity is counted by liquid scintillation. The non-specific binding is determined in the presence of 10 μmol/l of atropine sulfate. The 50% inhibitory concentration (IC50) is determined graphically (Ref.: Watson J. D., Roeskoe W. R. and Yamamura H. I., Life Sci., 31, 2019-2029, 1982).
as §2, §3

Row | Compound | IC50 [3] | IC50 [4] | r = M2/M1 (ratio of the M2 and M1 IC50 values, selectivity towards the M1 receptor) [4] | antidepressant properties [1] | properties as a ligand for the cholinergic receptors (in words) (cholinergic receptors) | % inhibition of rotations [2]
1 | Cc1cc(NCCN2CCOCC2)nnc1-c1ccccc1 [(I), 3-(2-morpholinoethylamino)-5-methyl-6-phenylpyridazine] |  |  |  | antidepressant properties of moderate intensity | possesses valuable properties as a ligand for the cholinergic receptors | 
2 | Cc1cc(NCCN2CCOCC2)nnc1-c1ccccc1.O=C(O)C(=O)O.O=C(O)C(=O)O [CM 30316, 3-(2-Morpholinoethylamino)-5-methyl-6-phenylpyridazine dioxalate] | 100 µM | 0.55 µM | 182 |  |  | -20%
3 | CCN(CC)CCNc1cc(C)c(-c2ccccc2)nn1 [SR 96150 A] | 2.8 µM | 0.06 µM | 47 |  |  | -49%

More lines, main results first:

Row | IC50 [3] | IC50 [4] | r = M2/M1 (ratio of the M2 and M1 IC50 values, selectivity towards the M1 receptor) [4] | Compound | antidepressant properties [1] | properties as a ligand for the cholinergic receptors (in words) (cholinergic receptors) | % inhibition of rotations [2]
4 | 30 µM | 3.7 µM | 8 | CCc1cc(NCCN2CCOCC2)nnc1-c1ccccc1 [SR 96169 A] |  |  | -46%
5 | 1 µM | 0.07 µM | 14 | CCc1cc(NCCN(CC)CC)nnc1-c1ccccc1 [SR 96180 A] |  |  | -38%
6 | 18 µM | 0.6 µM | 30 | CCCc1cc(NCCN2CCOCC2)nnc1-c1ccccc1 [SR 96186 A] |  |  | -41%
7 | 3.5 µM | 0.4 µM | 9 | CCCc1cc(NCCN(CC)CC)nnc1-c1ccccc1 [SR 96187 A] |  |  | -37%
